Data as given in ChEMBL document CHEMBL1135062, “Total synthesis and semi-synthetic approaches to analogues of antibacterial natural product althiomycin” (2002).
≈ marks a conversion by molar mass, not a printed value.

Tests used:
Format in all cases: functional
Streptococcus pneumoniae = experiment: Tested for the minimum inhibitory concentration against Streptococcus pneumoniae 3512
Escherichia coli [1] = experiment: Tested for the minimum inhibitory concentration against Escherichia coli 1852E PM
Saccharomyces cerevisiae = experiment: Tested for the minimum inhibitory concentration against Saccharomyces cerevisiae NCYC 81
Staphylococcus aureus [2] = experiment: Tested for the minimum inhibitory concentration against Staphylococcus aureus col
Escherichia coli [3] = experiment: Tested for the minimum inhibitory concentration against Escherichia coli 1852E + 3 ug/mL PMBN
Bacillus subtilis = experiment: Tested for the minimum inhibitory concentration against Bacillus subtilis 6633
Enterococcus faecalis = experiment: Tested for the minimum inhibitory concentration against […] faecalis 850E
Staphylococcus aureus [4] = experiment: Tested for the minimum inhibitory concentration against Staphylococcus aureus 853E

COC1=CC(=O)N(C(=O)[C@H]2CSC(CNC(C)=O)=N2)C1 was tested. Which MIC (Streptococcus pneumoniae) did it give?
Its MIC is 16 µg/mL (≈ 53.8 µM).

What about the MIC (Escherichia coli [1]) of the same compound?
Its MIC is 16 µg/mL (≈ 53.8 µM).

What about the MIC (Saccharomyces cerevisiae) of the same compound?
Its MIC is > 32 µg/mL.

What about the MIC (Staphylococcus aureus [2]) of the same compound?
Its MIC is 32 µg/mL (≈ 108 µM).

What about the MIC (Escherichia coli [3]) of the same compound?
Its MIC is 8 µg/mL.

What about the MIC (Bacillus subtilis) of the same compound?
Its MIC is 16 µg/mL (≈ 53.8 µM).

What about the MIC (Enterococcus faecalis) of the same compound?
Its MIC is 32 µg/mL (≈ 108 µM).

What about the MIC (Staphylococcus aureus [4]) of the same compound?
The MIC was 32 µg/mL (≈ 108 µM).

With COC1=CC(=O)N(C(=O)[C@H]2CSC(C(CO)NC(=O)c3csc(/C=N/O)n3)=N2)C1 (some centres undefined) as the compound, how does the MIC (Streptococcus pneumoniae) read?
The MIC was 4 µg/mL (≈ 9.1 µM).

What about the MIC (Escherichia coli [1]) of the same compound?
Its MIC is 1 µg/mL (≈ 2.28 µM).

And the MIC (Saccharomyces cerevisiae)?
The MIC was > 32 µg/mL.

What about the MIC (Staphylococcus aureus [2]) of the same compound?
The MIC was 16 µg/mL (≈ 36.4 µM).

And the MIC (Escherichia coli [3])?
Its MIC is 1 µg/mL.

And the MIC (Bacillus subtilis)?
The MIC was 16 µg/mL (≈ 36.4 µM).

And the MIC (Enterococcus faecalis)?
Its MIC is 16 µg/mL (≈ 36.4 µM).

What about the MIC (Staphylococcus aureus [4]) of the same compound?
The MIC was 16 µg/mL (≈ 36.4 µM).

Which MIC (Streptococcus pneumoniae) does the source give for CO/N=C(\C(=O)N[C@@H]1C(=O)N2C(C(=O)O)=C(CSc3nc(=O)c(O)nn3C)CS[C@H]12)c1csc(N)n1 [CEFTRIAXONE] here?
The MIC was 0.01 µg/mL (≈ 0.018 µM).

What about the MIC (Escherichia coli [1]) of the same compound?
Its MIC is 0.06 µg/mL (≈ 0.108 µM).

And the MIC (Saccharomyces cerevisiae)?
Its MIC is > 32 µg/mL.

And the MIC (Staphylococcus aureus [2])?
The MIC was > 32 µg/mL.

What about the MIC (Escherichia coli [3]) of the same compound?
Its MIC is 0.01 µg/mL.

What about the MIC (Bacillus subtilis) of the same compound?
Its MIC is 0.25 µg/mL (≈ 0.451 µM).

What about the MIC (Enterococcus faecalis) of the same compound?
Its MIC is 16 µg/mL (≈ 28.9 µM).

And the MIC (Staphylococcus aureus [4])?
The MIC was 4 µg/mL (≈ 7.21 µM).
